Results on 32 molecules are retold here after patent publication US20130196986A1 (priority 2010, published 2013).

In the experiment the target is T1, P2X7 receptor (Homo sapiens, UniProt Q99572).
T1 construct: stably expressing the full length P2X7 receptor; expressed in transfected cells
T1 sequence (Q99572 1-595): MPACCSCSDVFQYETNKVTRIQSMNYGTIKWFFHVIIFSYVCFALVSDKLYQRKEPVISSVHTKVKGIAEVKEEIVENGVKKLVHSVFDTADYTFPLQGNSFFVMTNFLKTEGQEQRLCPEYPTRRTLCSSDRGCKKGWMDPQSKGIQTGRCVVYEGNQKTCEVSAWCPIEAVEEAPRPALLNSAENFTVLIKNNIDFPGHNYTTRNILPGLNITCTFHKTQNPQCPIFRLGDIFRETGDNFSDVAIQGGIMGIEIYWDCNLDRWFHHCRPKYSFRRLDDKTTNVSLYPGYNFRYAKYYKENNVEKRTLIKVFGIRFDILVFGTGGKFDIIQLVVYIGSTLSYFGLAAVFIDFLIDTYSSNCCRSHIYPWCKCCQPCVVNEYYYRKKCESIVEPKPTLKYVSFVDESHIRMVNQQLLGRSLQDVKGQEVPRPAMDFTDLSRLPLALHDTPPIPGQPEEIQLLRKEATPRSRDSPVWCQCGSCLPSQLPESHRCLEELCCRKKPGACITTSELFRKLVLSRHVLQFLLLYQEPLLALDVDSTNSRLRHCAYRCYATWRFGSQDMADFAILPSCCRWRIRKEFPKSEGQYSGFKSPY
Nature of the experiment: Ca++ flux assay (FLIPR) in P2X7-HEK-293 cell line stably expressing the full length P2X7 receptor, Bz-ATP activation. Type of experiment: cell-based. To be noted: P2X7-HEK-293 cells; agonist Bz-ATP; fluorescence as total area over 90 seconds; read-out: P2X7 Ca Flux hu IC50. In a few lines: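 HEK-293 cells stably expressing full-length P2X7 were loaded with Ca++-sensitive dye for 1 h, with compound added during loading. Cells were stimulated with Bz-ATP on FLIPR. Fluorescence was integrated as total area over 90 s, and IC50 was taken as 50% inhibition of the maximal Ca++ response.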

Consider `Cc1cccc(-n2ccn3c(SCc4ccccc4)nnc3c2=O)c1C` [Compound 92, 3-(benzylthio)-7-(2,3-dimethylphenyl)-[1,2,4]triazolo[4,3-a]pyrazin-8(7H)-one], for which the IC50 turned out to be 209 nM.
As to `Cc1c(-n2ccn3c(SCc4ccccc4)nnc3c2=O)cccc1C(F)(F)F` [Compound 93, 3-(benzylthio)-7-(2-methyl-3-(trifluoromethyl)phenyl)-[1,2,4]triazolo[4,3-a]pyrazin-8(7H)-one], the IC50 turned out to be 38.2 nM.
Turning to `Cc1nc(CSc2nnc3c(=O)n(-c4cccc(Cl)c4C)ccn23)cs1` [Compound 94, 7-(3-chloro-2-methylphenyl)-3((2-methylthiazol-4-yl)methylthio)-[1,2,4]triazolo[4,3-a]pyrazin-8(7H)-one], the IC50 stood at 2560 nM.
The figure for `O=c1c2nnc(SCc3ccccc3)n2ccn1-c1cccc(Cl)c1Cl` [Compound 95, 3-(benzylthio)-7-(2,3-dichlorophenyl)-[1,2,4]triazolo[4,3-a]pyrazin-8(7H)-one] is 110 nM.
For the molecule `Cc1c(Cl)cccc1-n1ccn2c(SCc3cccnc3)nnc2c1=O` [Compound 96, 7-(3-chloro-2-methylphenyl)-3-(pyridin-3-ylmethylthio)-[1,2,4]triazolo[4,3-a]pyrazin-8(7H)-one], the IC50 was 4220 nM.
The figure for `Cc1c(Cl)cccc1-n1ccn2c(SCc3ccc4ccccc4c3)nnc2c1=O` [Compound 97, 7-(3-chloro-2-methylphenyl)-3-(naphthalen-2-ylmethylthio)-[1,2,4]triazolo[4,3-a]pyrazin-8(7H)-one] is 2310 nM; for `Cc1c(Cl)cccc1-n1ccn2c(SCc3ccccn3)nnc2c1=O` [Compound 98, 7-(3-chloro-2-methylphenyl)-3-(pyridin-2-ylmethylthio)-[1,2,4]thazolo[4,3-a]pyrazin-8(7H)-one] it is 2340 nM; for `Cc1c(Br)cccc1-n1ccn2c(SCc3ccccc3)nnc2c1=O` [Compound 99, 3-(benzylthio)-7-(3-bromo-2-methylphenyl)-[1,2,4]-triazolo[4,3-a]pyrazin-8(7H)-one] it is 250 nM.
The figure for `O=c1c2nnc(SCc3ccccc3)n2ccn1-c1ccc(Cl)c(Cl)c1` [Compound 100, 3-(benzylthio)-7-(3,4-dichlorophenyl)-[1,2,4]triazolo[4,3-a]pyrazin-8(7H)-one] is 3920 nM.
Regarding `Cc1c(Cl)cccc1-n1ccn2c(SCc3cc(Cl)cc(Cl)c3)nnc2c1=O` [Compound 101, 7-(3-chloro-2-methylphenyl)-3-(3,5-dichlorobenzylthio)-[1,2,4]triazolo[4,3-a]pyrazin-8(7H)-one], the 50% inhibitory concentration (IC50) worked out at 167 nM.
The figure for `Cc1c(Cl)cccc1-n1ccn2c(SCc3cc(F)c(F)c(F)c3)nnc2c1=O` [Compound 102, 7-(3-chloro-2-methylphenyl)-3-(3,4,5-trifluorobenzylthio)-[1,2,4]triazolo[4,3-a]pyrazin-8(7H)-one] is 925 nM; for `Cc1c(Cl)cccc1-n1ccn2c(SCc3ccc(Cl)c(Cl)c3)nnc2c1=O` [Compound 103, 7-(3-chloro-2-methylphenyl)-3-(3,4-dichlorobenzylthio)-[1,2,4]triazolo[4,3-a]pyrazin-8(7H)-one] it is 1300 nM; for `Cc1c(Cl)cccc1-n1ccn2c(SCc3ccc(C(C)C)cc3)nnc2c1=O` [Compound 104, 7-(3-chloro-2-methylphenyl)-3-(4-isopropylbenzylthio)-[1,2,4]triazolo[4,3-a]pyrazin-8(7H)-one] it is 2740 nM.
The figure for `Cc1c(Cl)cccc1-n1ccn2c(SCc3c(F)cccc3F)nnc2c1=O` [Compound 105, 7-(3-chloro-2-methylphenyl)-3-(2,6-difluorobenzylthio)-[1,2,4]triazolo[4,3-a]pyrazin-8(7H)-one] is 389 nM; for `Cc1c(Cl)cccc1-n1ccn2c(SCc3c(F)c(F)c(F)c(F)c3F)nnc2c1=O` [Compound 106, 7-(3-chloro-2-methylphenyl)-3-(perfluorobenzylthio)-[1,2,4]triazolo[4,3-a]pyrazin-8(7H)-one] it is 387 nM; for `Cc1c(Cl)cccc1-n1ccn2c(SCC(=O)OC(C)(C)C)nnc2c1=O` [Compound 107, tert-butyl 2-(7-(3-chloro-2-methylphenyl)-8-oxo-7,8-dihydro-[1,2,4]triazolo[4,3-a]pyrazin-3-ylthio)acetate] it is 1820 nM.
Next, `COc1ccccc1C(=O)CSc1nnc2c(=O)n(-c3cccc(Cl)c3C)ccn12` [Compound 108, 7-(3-chloro-2-methylphenyl)-3-(2-(2-methoxyphenyl)-2-oxoethylthio)-[1,2,4]triazolo[4,3-a]pyrazin-8(7H)-one]: 507 nM; `Cc1c(Cl)cccc1-n1ccn2c(SCC(=O)c3ccccc3C(F)(F)F)nnc2c1=O` [Compound 109, 7-(3-chloro-2-methylphenyl)-3-(2-oxo-2-(2-(trifluoromethyl)phenyl)ethylthio)-[1,2,4]-triazolo[4,3-a]pyrazin-8(7H)-one]: 448 nM.
As for `COc1ccccc1CSc1nnc2c(=O)n(-c3cccc(Cl)c3C)ccn12` [Compound 110, 7-(3-chloro-2-methylphenyl)-3-(2-methoxybenzylthio)-[1,2,4]triazolo[4,3-a]pyrazin-8(7H)-one], the IC50 is 544 nM.
Next, `Cc1c(Cl)cccc1-n1ccn2c(SCc3ccccc3C(F)(F)F)nnc2c1=O` [Compound 111, 7-(3-chloro-2-methylphenyl)-3-(2-(trifluoromethyl)benzylthio)-[1,2,4]triazolo[4,3-a]pyrazin-8(7H)-one]: 515 nM.
For `Cc1c(Cl)cccc1-n1ccn2c(SCCc3ccccc3)nnc2c1=O` [Compound 112, 7-(3-chloro-2-methylphenyl)-3-(phenethylthio)-[1,2,4]triazolo[4,3-a]pyrazin-8(7H)-one], the IC50 was 660 nM.
The figure for `COc1ccc(CSc2nnc3c(=O)n(-c4cccc(Cl)c4C)ccn23)cc1` [Compound 113, 7-(3-chloro-2-methylphenyl)-3-(4-methoxybenzylthio)-[1,2,4]triazolo[4,3-a]pyrazin-8(7H)-one] is 5650 nM; for `Cc1c(Cl)cccc1-n1ccn2c(SCc3cc(F)cc(F)c3)nnc2c1=O` [Compound 114, 7-(3-chloro-2-methylphenyl)-3-(3,5-difluorobenzylthio)-[1,2,4]triazolo[4,3-a]pyrazin-8(7H)-one] it is 697 nM.
Consider `Cc1c(Cl)cccc1-n1ccn2c(SCc3ccc(F)c(F)c3)nnc2c1=O` [Compound 115, 7-(3-chloro-2-methylphenyl)-3-(3,4-difluorobenzylthio)-[1,2,4]triazolo[4,3-a]pyrazin-8(7H)-one], for which the IC50 came out at 893 nM.
Next, `Cc1c(-n2ccn3c(S(=O)(=O)Cc4ccccc4)nnc3c2=O)cccc1C(F)(F)F` [Compound 116]: 29 nM.
Regarding `Cc1c(-n2ccn3c([S+]([O-])Cc4ccccc4)nnc3c2=O)cccc1C(F)(F)F` (centres unmarked) [Compound 117, 3-(benzylsulfinyl)-7-(2-methyl-3-(trifluoromethyl)phenyl)-[1,2,4]triazolo[4,3-a]pyrazin-8(7H)-one], the IC50 came to 76.5 nM.
As to `Cc1c(-n2ccn3c(S(=O)(=O)Cc4ccccc4-c4ccc(Cl)cc4)nnc3c2=O)cccc1C(F)(F)F` [Compound 118, 3-((4′-chlorobiphenyl-2-yl)methylsulfonyl)-7-(2-methyl-3-(trifluoromethyl)phenyl)-[1,2,4]triazolo[4,3-a]pyrazin-8(7H)-one], the IC50 was determined as 6.9 nM.
Next, `O=c1c2nnc(S(=O)(=O)Cc3ccccc3Cl)n2ccn1-c1cccc(C(F)(F)F)c1Cl` [Compound 119, 7-(2-chloro-3-(trifluoromethyl)phenyl)-3-(2-chlorobenzylsulfonyl)-[1,2,4]triazolo[4,3-a]pyrazin-8(7H)-one]: 11 nM; `Cc1c(-n2ccn3c(S(=O)(=O)Cc4ccccc4F)nnc3c2=O)cccc1C(F)(F)F` [Compound 120, 3-(2-fluorobenzylsulfonyl)-7-(2-methyl-3-(trifluoromethyl)phenyl)-[1,2,4]triazolo[4,3-a]pyrazin-8(7H)-one]: 11.8 nM.
For the molecule `Cc1c(-n2ccn3c(S(=O)(=O)Cc4ccccc4Cl)nnc3c2=O)cccc1C(F)(F)F` [Compound 121, 3-(2-chlorobenzylsulfonyl)-7-(2-methyl-3-(trifluoromethyl)phenyl)-[1,2,4]triazolo[4,3-a]pyrazin-8(7H)-one], the IC50 stood at 11.9 nM.
In the case of `Cc1c(-n2ccn3c(S(=O)(=O)Cc4cccs4)nnc3c2=O)cccc1C(F)(F)F` [Compound 122, 7-(2-methyl-3-(trifluoromethyl)phenyl)-3-(thiophen-2-ylmethylsulfonyl)-[1,2,4]triazolo[4,3-a]pyrazin-8(7H)-one], the IC50 amounted to 12.3 nM.
Next, `Cc1c(-n2ccn3c(S(=O)(=O)Cc4ccsc4)nnc3c2=O)cccc1C(F)(F)F` [Compound 123, 7-(2-methyl-3-(trifluoromethyl)phenyl)-3-(thiophen-3-ylmethylsulfonyl)-[1,2,4]triazolo[4,3-a]pyrazin-8(7H)-one]: 12.4 nM.
